SMILES strings stand for the structures.

The target in assay [1] is Human plasma kallikrein (Homo sapiens (Human), UniProt P03952). Briefly: Determination of the IC50 for plasma kallikrein. It is filed as biochemical. The following applies: 37° C., substrate H-DPro-Phe-Arg-AFC, read-out: IC50 (human PKal). How it is done: Determination of the IC50 for Plasma Kallikrein
Plasma kallikrein inhibitory activity in vitro was determined using standard published methods (see e.g. Johansen et al., Int. J. Tiss. Reac. 1986, 8, 185; Shori et al., Biochem. Pharmacol., 1992, 43, 1209; Stiirzebecher et al., Biol. Chem. Hoppe-Seyler, 1992, 373, 1025). Human plasma kallikrein (Protogen) was incubated at 37° C. with the fluorogenic substrate H-DPro-Phe-Arg-AFC and various concentrations of the test compound. Residual enzyme activity (initial rate of reaction) was determined by measuring the change in optical absorbance at 410 nm and the IC50 value for the test compound was determined.

Assay [2] concerns the target Human KLK1 (Homo sapiens (Human), UniProt P06870). Briefly: Determination of the IC50 for KLK1. Type of assay: biochemical. The following applies: Human KLK1, 37° C., substrate H-DVal-Leu-Arg-AFC; Table 13. How it is done:
Determination of the IC50 for KLK1
KLK1 inhibitory activity in vitro was determined using standard published methods (see e.g. Johansen et al., Int. J. Tiss. Reac. 1986, 8, 185; Shori et al., Biochem. Pharmacol., 1992, 43, 1209; Stürzebecher et al., Biol. Chem. Hoppe-Seyler, 1992, 373, 1025). Human KLK1 (Callbiochem) was incubated at 37° C. with the fluorogenic substrate H-DVal-Leu-Arg-AFC and various concentrations of the test compound. Residual enzyme activity (initial rate of reaction) was determined by measuring the change in optical absorbance at 410 nm and the IC50 value for the test compound was determined.

Chain of Human plasma kallikrein (P03952 391-638): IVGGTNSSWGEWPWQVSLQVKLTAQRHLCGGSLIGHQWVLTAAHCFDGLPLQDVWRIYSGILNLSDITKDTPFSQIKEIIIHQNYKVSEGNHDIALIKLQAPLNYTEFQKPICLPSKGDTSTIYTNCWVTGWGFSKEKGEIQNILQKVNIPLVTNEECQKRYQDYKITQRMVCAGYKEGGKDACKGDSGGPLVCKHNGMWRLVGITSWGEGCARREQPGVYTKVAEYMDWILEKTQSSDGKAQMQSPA
Chain of Human plasma kallikrein (P03952 20-390 partner): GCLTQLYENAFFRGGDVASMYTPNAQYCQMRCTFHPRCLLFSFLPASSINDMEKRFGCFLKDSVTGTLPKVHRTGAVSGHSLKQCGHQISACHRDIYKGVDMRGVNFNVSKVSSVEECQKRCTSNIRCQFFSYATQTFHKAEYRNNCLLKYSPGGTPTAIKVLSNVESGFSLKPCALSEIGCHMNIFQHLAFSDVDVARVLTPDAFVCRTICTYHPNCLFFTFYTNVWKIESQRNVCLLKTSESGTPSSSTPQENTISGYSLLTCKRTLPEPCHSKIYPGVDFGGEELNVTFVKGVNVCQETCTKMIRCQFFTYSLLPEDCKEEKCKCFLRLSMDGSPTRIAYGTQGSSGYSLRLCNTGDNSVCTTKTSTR
Chain of Human KLK1 (P06870 25-262): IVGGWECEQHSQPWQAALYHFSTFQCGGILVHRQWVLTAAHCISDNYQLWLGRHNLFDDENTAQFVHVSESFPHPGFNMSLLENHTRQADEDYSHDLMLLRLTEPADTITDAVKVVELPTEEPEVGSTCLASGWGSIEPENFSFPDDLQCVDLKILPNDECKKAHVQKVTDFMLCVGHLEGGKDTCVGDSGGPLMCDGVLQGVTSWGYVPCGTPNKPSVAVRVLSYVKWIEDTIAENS

By IC50 is commonly meant the concentration that inhibits the measured activity by half. `CCOc1ccc(C[C@@H](NC(=O)c2cnc(C)s2)C(=O)N[C@@H](Cc2ccccc2)C(=O)NCc2ccc(CN)cc2)cc1` [Example 112, 2-Methyl-thiazole-5-carboxylic acid [(R)-1-[(S)-1-(4-aminomethyl-benzylcarbamoyl)-2-phenyl-ethylcarbamoyl]-2-(4-ethoxy-phenyl)-ethyl]-amide]: the IC50 in assay [1] was 0.298 µM; in assay [2], above 10 µM.
The matching figures for `CCOc1ccc(C[C@@H](NC(=O)c2nc(C)oc2C)C(=O)N[C@@H](Cc2ccccc2)C(=O)NCc2ccc(CN)cc2)cc1` [Example 113, 2,5-Dimethyl-oxazole-4-carboxylic acid [(R)-1-[(S)-1-(4-aminomethyl-benzylcarbamoyl)-2-phenyl-ethylcarbamoyl]-2-(4-ethoxy-phenyl)-ethyl]-amide]: 0.455 µM and above 10 µM.
The corresponding values for `CCOc1ccc(C[C@@H](NC(=O)c2ccc3nc(C)ccc3c2)C(=O)N[C@@H](Cc2ccccc2)C(=O)NCc2ccc(CN)cc2)cc1` [Example 114, 2-Methyl-quinoline-6-carboxylic acid [(R)-1-[(S)-1-(4-aminomethyl-benzylcarbamoyl)-2-phenyl-ethylcarbamoyl]-2-(4-ethoxy-phenyl)-ethyl]-amide] are 0.427 µM and above 10 µM.
The corresponding values for `CCOc1ccc(C[C@@H](NC(=O)c2cnc3cc(Cl)ccc3c2)C(=O)N[C@@H](Cc2ccccc2)C(=O)NCc2ccc(CN)cc2)cc1` [Example 115, 7-Chloro-quinoline-3-carboxylic acid [(R)-1-[(S)-1-(4-aminomethyl-benzylcarbamoyl)-2-phenyl-ethylcarbamoyl]-2-(4-ethoxy-phenyl)-ethyl]-amide] are 0.417 µM and 9 µM.
`CCOc1ccc(C[C@@H](NC(=O)c2scnc2C)C(=O)N[C@@H](Cc2ccccc2)C(=O)NCc2ccc(CN)cc2)cc1` [Example 117, 4-Methyl-thiazole-5-carboxylic acid[(R)-1-[(S)-1-(4-aminomethyl-benzylcarbamoyl)-2-phenyl-ethylcarbamoyl]-2-(4-ethoxy-phenyl)-ethyl]-amide]: the IC50 in assay [1] is 0.048 µM; in assay [2], 6.1 µM.
The matching figures for `CCOc1ccc(C[C@@H](NC(=O)c2ccco2)C(=O)N[C@@H](Cc2ccccc2)C(=O)NCc2ccc(CN)cc2)cc1` [Example 118, Furan-2-carboxylic acid [(R)-1-[(S)-1-(4-aminomethyl-benzylcarbamoyl)-2-phenyl-ethylcarbamoyl]-2-(4-ethoxy-phenyl)-ethyl]-amide]: 0.061 µM and above 10 µM.
The matching figures for `CCOc1ccc(C[C@@H](NC(=O)c2cccc(OC)n2)C(=O)N[C@@H](Cc2ccccc2)C(=O)NCc2ccc(CN)cc2)cc1` [Example 120, 6-Methoxy-pyridine-2-carboxylic acid [(R)-1-[(S)-1-(4-aminomethyl-benzylcarbamoyl)-2-phenyl-ethylcarbamoyl]-2-(4-ethoxy-phenyl)-ethyl]-amide]: 0.54 µM and above 10 µM.
For the compound `CCOc1ccc(C[C@@H](NC(=O)c2cncc(OC)c2)C(=O)N[C@@H](Cc2ccccc2)C(=O)NCc2ccc(CN)cc2)cc1` [Example 121, N-[(R)-1-[(S)-1-(4-Aminomethyl-benzylcarbamoyl)-2-phenyl-ethylcarbamoyl]-2-(4-ethoxy-phenyl)-ethyl]-5-methoxy-nicotinamide], the IC50 in assay [1] is 0.31 µM; in assay [2], above 10 µM.
The corresponding values for `CCOc1ccc(C[C@@H](NC(=O)c2sccc2OC)C(=O)N[C@@H](Cc2ccccc2)C(=O)NCc2ccc(CN)cc2)cc1` [Example 122, 3-Methoxy-thiophene-2-carboxylic acid [(R)-1-[(S)-1-(4-aminomethyl-benzylcarbamoyl)-2-phenyl-ethylcarbamoyl]-2-(4-ethoxy-phenyl)-ethyl]-amide] are 0.519 µM and 4.8 µM.
Take `CCOc1ccc(C[C@@H](NC(=O)c2ccnc(OC)c2)C(=O)N[C@@H](Cc2ccccc2)C(=O)NCc2ccc(CN)cc2)cc1` [Example 123, N-[(R)-1-[(S)-1-(4-Aminomethyl-benzylcarbamoyl)-2-phenyl-ethylcarbamoyl]-2-(4-ethoxy-phenyl)-ethyl]-2-methoxy-isonicotinamide]: the IC50 in assay [1] is 0.214 µM; in assay [2] it was above 10 µM.
Regarding `NCc1ccc(CNC(=O)[C@H](Cc2ccccc2)NC(=O)[C@@H](CC2CCCCC2)NC(=O)c2ccccc2)cc1` [Example 126, N-{(R)-1-[(S)-1-(4-Aminomethyl-benzylcarbamoyl)-2-phenyl-ethylcarbamoyl]-2-cyclohexyl-ethyl}-benzamide], the IC50 is 4.01 µM in assay [1] and above 10 µM in assay [2].
The corresponding values for `NCc1ccc(CNC(=O)[C@H](Cc2ccccc2)NC(=O)[C@@H](Cc2ccc(Cl)cc2)NC(=O)c2ccccc2)cc1` [Example 127, N-[(R)-1-[(S)-1-(4-Aminomethyl-benzylcarbamoyl)-2-phenyl-ethylcarbamoyl]-2-(4-chloro-phenyl)-ethyl]-benzamide] are 0.521 µM and above 10 µM.
Take `NCc1ccc(CNC(=O)[C@H](Cc2ccccc2)NC(=O)[C@@H](Cc2ccc(OCc3ccc(Cl)cc3)cc2)NC(=O)c2ccccc2)cc1` [Example 128, N-{(R)-1-[(S)-1-(4-Aminomethyl-benzylcarbamoyl)-2-phenyl-ethylcarbamoyl]-2-[4-(4-chloro-benzyloxy)-phenyl]-ethyl}-benzamide]: the IC50 in assay [1] was 2.01 µM; in assay [2] it was above 10 µM.
With `NCc1ccc(CNC(=O)[C@H](Cc2ccccc2)NC(=O)[C@@H](Cc2ccc(O)cc2)NC(=O)c2ccccc2)cc1` [Example 129, N-[(R)-1-[(S)-1-(4-Aminomethyl-benzylcarbamoyl)-2-phenyl-ethylcarbamoyl]-2-(4-hydroxy-phenyl)-ethyl]-benzamide], the IC50 in assay [1] was 10 µM; in assay [2], above 10 µM.
The corresponding values for `NCc1ccc(CNC(=O)[C@H](Cc2ccccc2)NC(=O)[C@@H](Cc2ccc(OCc3ccc(F)cc3)cc2)NC(=O)c2ccccc2)cc1` [Example 130, N-{(R)-1-[(S)-1-(4-Aminomethyl-benzylcarbamoyl)-2-phenyl-ethylcarbamoyl]-2-[4-(4-fluoro-benzyloxy)-phenyl]-ethyl}-benzamide] are 2.49 µM and above 10 µM.
The matching figures for `CC(C)C[C@@H](NC(=O)c1ccccc1)C(=O)N[C@@H](Cc1ccccc1)C(=O)NCc1ccc(CN)cc1` [Example 133, N-{(R)-1-[(S)-1-(4-Aminomethyl-benzylcarbamoyl)-2-phenyl-ethylcarbamoyl]-3-methyl-butyl}-benzamide]: 10 µM and above 10 µM.
The corresponding values for `NCc1ccc(CNC(=O)[C@H](Cc2ccccc2)NC(=O)[C@@H](Cc2ccc(OCc3c(Cl)cccc3Cl)cc2)NC(=O)c2ccccc2)cc1` [Example 134, N-{(R)-1-[(S)-1-(4-Aminomethyl-benzylcarbamoyl)-2-phenyl-ethylcarbamoyl]-2-[4-(2,6-dichloro-benzyloxy)-phenyl]-ethyl}-benzamide] are 10 µM and above 10 µM.
Regarding `Cc1ccc(C[C@@H](NC(=O)c2ccccc2)C(=O)N[C@@H](Cc2ccccc2)C(=O)NCc2ccc(CN)cc2)cc1` [Example 135, N-{(R)-1-[(S)-1-(4-Aminomethyl-benzylcarbamoyl)-2-phenyl-ethylcarbamoyl]-2-p-tolyl-ethyl}-benzamide], the IC50 in assay [1] is 0.424 µM; in assay [2], above 10 µM.
Turning to `NCc1ccc(CNC(=O)[C@H](Cc2ccccc2)NC(=O)[C@@H](Cc2ccc(OCc3cccc(F)c3)cc2)NC(=O)c2ccccc2)cc1` [Example 136, N-{(R)-1-[(S)-1-(4-Aminomethyl-benzylcarbamoyl)-2-phenyl-ethylcarbamoyl]-2-[4-(3-fluoro-benzyloxy)-phenyl]-ethyl}-benzamide], the IC50 in assay [1] was 1.02 µM; in assay [2], above 10 µM.
The corresponding values for `COc1ccc(C[C@@H](NC(=O)c2ccccc2)C(=O)N[C@@H](Cc2ccccc2)C(=O)NCc2ccc(CN)cc2)cn1` [Example 137, N-[(R)-1-[(S)-1-(4-Aminomethyl-benzylcarbamoyl)-2-phenyl-ethylcarbamoyl]-2-(6-methoxy-pyridin-3-yl)-ethyl]-benzamide] are 7.54 µM and above 10 µM.
The matching figures for `COc1ccc(C[C@@H](NC(=O)c2ccccc2)C(=O)N[C@@H](Cc2ccccc2)C(=O)NCc2ccc(CN)cc2)cc1` [Example 138, N-[(R)-1-[(S)-1-(4-Aminomethyl-benzylcarbamoyl)-2-phenyl-ethylcarbamoyl]-2-(4-methoxy-phenyl)-ethyl]-benzamide]: 0.31 µM and above 10 µM.
The matching figures for `NCc1ccc(CNC(=O)[C@H](Cc2ccccc2)NC(=O)[C@@H](Cc2ccccc2)NC(=O)c2ccccc2)cc1` [Example 139, N-{(R)-1-[(S)-1-(4-Aminomethyl-benzylcarbamoyl)-2-phenyl-ethylcarbamoyl]-2-phenyl-ethyl}-benzamide]: 1.14 µM and above 10 µM.

For the origin of these results see patent US9234000B2, “Benzylamine derivatives as inhibitors of plasma kallikrein” (KalVista Pharmaceuticals Limited, priority 2011, dated 2016).
